Entries after “also recorded” stand apart in the source; their conditions may differ.
Legend:
[1] = test system: isolated rat liver mitochondria; experiment: Polarographic assay of basal respiration: uncoupling action; format: biochemical; settings: for Uncoupling: 500 μM drug, isolated rat liver mitochondria, qualitative; for Uncoupling action (in words): drug added to rat liver mitochondria respiring in the basal state
Text: Normally electron transport proceeds at a slow basal rate in the presence of an oxidizable substrate unless the H^+ gradient is dissipated by a need for ATP synthesis. However, if the H^+ gradient is dissipated by the addition of a chemical that alters membrane permeability to H^+, respiration will be stimulated unproductively, that is, without concomitant ATP synthesis, so that energy is wasted. […] If respiration (oxygen consumption) is stimulated, uncoupling is inferred.
The second test determines whether the drug uncouples electron transport from ATP synthesis. Normally, in these preparations, electron transport will proceed at a slow basal rate in the presence of an oxidizable substrate, unless the H^+ gradient is dissipated by a need for ATP synthesis. However, if the H^+ gradient is dissipated by the addition of a drug that alters membrane permeability to H^+, respiration will be stimulated unproductively (i.e., without concomitant ATP synthesis) so that energy is wasted. […] If respiration (e.g., oxygen consumption) is stimulated, uncoupling is inferred.
Normally electron transport proceeds at a slow basal rate in the presence of an oxidizable substrate unless the H^+ gradient is dissipated by a need for ATP synthesis. However, if the H^+ gradient is dissipated by the addition of a drug that alters membrane permeability to H^+ , respiration will be stimulated unproductively without concomitant ATP synthesis so that energy is wasted. Haloperidol, quetiapine, risperidone, and clozapine were added to mitochondria respiring in the basal state (FIG. 3). If respiration (i e., oxygen consumption) is stimulated, uncoupling is inferred.

respiratory complex II = experiment: Polarographic assay of uncoupled (2,4-dinitrophenol) maximal respiration with succinate: inhibition of electron transport at site II; format: biochemical; settings: 500 μM drug, isolated rat liver mitochondria, qualitative
ATP synthetase = experiment: Polarographic assay of ADP-stimulated coupled versus uncoupled respiration: inhibition of ATP synthetase; format: biochemical; settings: 500 μM drug; isolated rat liver mitochondria; qualitative
Description: (§1) When coupling is intact, basal respiration will be stimulated by the addition of ADP to invoke ATP synthesis, as electron transport is stepped up to replace the H^+ gradient that is used by the ATP synthetase enzyme. If the drug inhibits this coupled respiration rate, the inhibition could be due either to inhibition of the ATP synthetase itself or to inhibition of the electron transport rate that supports the ATP synthesis. To detect which is inhibited, the drug is also tested for inhibition of maximal electron transport rates in the presence of a known uncoupler. Inhibition of the coupled, but not the uncoupled respiration rate pinpoints the inhibition to the ATP synthetase or to one of the supporting transport processes such as the phosphate or ADP/ATP transporters.
as §1, with “The third test examines whether the drug inhibits ATP synthetase. When” for “When”, “the difference,” for “which is inhibited,”, “uncoupler, as in the first test described supra.” for “uncoupler.”, “coupled” for “coupled,”, “as” for “as the”
When coupling is intact, basal respiration is stimulated by the addition of ADP which stimulates ATP synthesis, as electron transport is stepped up to re-establish the H^+ gradient that is used by the ATP synthetase enzyme. If the drug inhibits this coupled respiration rate, the inhibition could be due either to inhibition of the ATP synthetase itself or to inhibition of the electron transport rate that supports the ATP synthesis. Haloperidol, quetiapine, risperidone, and clozapine were tested for inhibition of maximal electron transport rates in the presence and absence of a known uncoupler (FIG. 4). Inhibition of the coupled, but not the uncoupled respiration rate pinpoints the inhibition to the ATP synthetase or to one of the supporting transport processes such as phosphate or ADP/ATP transporters.

electron transport chain = experiment: Polarographic assay of maximal electron transport rate (oxygen consumption), overall inhibition; format: biochemical; settings: rat liver mitochondria, maximal rate of oxygen consumption with 2,4-dinitrophenol
Description: A known uncoupler (2,4-dinitrophenol) was added in the presence of an oxidizable substrate to elicit maximal electron transport rates, measured as the maximal rate of oxygen consumption; a slower rate in the presence of the drug indicates inhibition somewhere in the electron transport chain.
A known uncoupler of oxidative phosphorylation (e.g., 2,4-dinitrophenol) is added to the preparation to elicit maximal electron transport rates, measured as the rate of oxygen consumption. A slower rate in the presence of the drug indicates inhibition somewhere along the electron transport chain. The test is performed with different substrates that donate electrons at either respiratory complex I (glutamate and malate) or at complex II (succinate) or via electron-transferring flavoprotein (ETF) to gain information about site-specific inhibition.
(§2) Mitochondrial respiration is measured polarographically using a Clark oxygen electrode. To test for drug effect, an appropriate concentration of drug is introduced at the beginning of the assay, prior to the addition of substrate. The test substance (e.g., drug) is thus present continuously in the assays as the basal, coupled and uncoupled rates are successively determined. The solvent in which the drug is dissolved is tested alone as the control.
(§3) Rates were measured as the rate of oxygen consumption. A slower rate in the presence of the drug indicates inhibition somewhere in the electron transport chain. The tests were performed with different substrates that donate electrons at either respiratory complex I (glutamate+malate) or at complex II (succinate) to gain information about site-specific inhibition.

respiratory complex I = settings: glutamate+malate; for El. Transport Site I: 500 μM drug, isolated rat liver mitochondria, qualitative; for Inhibition of electron transport at respiratory complex I (in words): rat liver mitochondria, 2,4-dinitrophenol added, preliminary data
Description: A known uncoupler (2,4-dinitrophenol) was added in the presence of an oxidizable substrate to elicit maximal electron transport rates, measured as the maximal rate of oxygen consumption; a slower rate in the presence of the drug indicates inhibition somewhere in the electron transport chain. The assay is performed with different substrates that donate electrons at either respiratory complex I (glutamate+malate) or at complex II (succinate) or through electron-transferring flavoprotein (ETF) (not shown) to gain information about site-specific inhibition.
This first test answers the questions of whether the compound under study inhibits electron transport, and if so, whether inhibition involves specific respiratory enzyme complexes in the electron transport chain. A known uncoupler of oxidative phosphorylation (e.g., 2,4-dinitrophenol) is added to the preparation to elicit maximal electron transport rates, measured as the rate of oxygen consumption. A slower rate in the presence of the drug indicates inhibition somewhere along the electron transport chain. The test is performed with different substrates that donate electrons at either respiratory complex I (glutamate and malate) or at complex II (succinate) or via electron-transferring flavoprotein (ETF) to gain information about site-specific inhibition.
as §2
Stimulation of basal respiration by the drug indicates uncoupling. If inhibition of the coupled rate is observed, this could be due to inhibition of ATP synthetase function, or to inhibition of electron transport. If the addition of uncoupler fails to relieve the inhibition, then the drug is inhibiting electron transport; and if the addition of uncoupler relieves the inhibition, then the drug is inhibiting ATP synthetase function.
Information about site specific electron transport inhibition can be obtained with this assay by using substrates that donate electrons to the respiratory chain at different branch sites. For example, by separately including either succinate which donates to complex II or glutamate+malate which donates electrons to complex I, or other organic acids which donate through electron-transferring flavoprotein (ETF).
as §3

[2] = test system: mitochondrial respiratory complex I; settings: literature statement; cited from earlier work

SMILES: O=[N+]([O-])c1ccc(O)c([N+](=O)[O-])c1 [2,4-dinitrophenol]
- Stimulation of basal respiration ([1]; known uncoupler, rat liver mitochondria in basal state with oxidizable substrate): 6-10 fold

SMILES: O=C(CCCN1CCC(O)(c2ccc(Cl)cc2)CC1)c1ccc(F)cc1 [Haloperidol]
- El. Transport Site II (respiratory complex II): −
- ATP Synthesis (ATP synthetase): −
- Uncoupling [1]: −
- Inhibition of electron transport, overall (in words) (electron transport chain): potent inhibitors of electron transport
- El. Transport Site I (respiratory complex I): ++
- Inhibition of electron transport at respiratory complex I (in words) (respiratory complex I): inhibited electron transport specifically at respiratory complex I

SMILES: CSc1ccc2c(c1)N(CCC1CCCCN1C)c1ccccc1S2 (stereo not drawn) [Thioridazine]
- El. Transport Site II (respiratory complex II): +
- ATP Synthesis (ATP synthetase): −
- Uncoupling [1]: ++
- Uncoupling action (in words) [1]: more potent than clozapine
- Inhibition of electron transport, overall (in words) (electron transport chain): inhibited electron transport markedly but not specifically at either complex I or II
- Inhibition of electron transport, overall (in words) (electron transport chain; listed as thioridazine): potent inhibitors of electron transport
- El. Transport Site I (respiratory complex I): +++

SMILES: O=C(CCC[n+]1ccc(-c2ccc(Cl)cc2)cc1)c1ccc(F)cc1 [HPP^+]
- Inhibition of mitochondrial complex I (in words) [2]: potent inhibitor of mitochondrial complex I

SMILES: C[n+]1ccc(-c2ccccc2)cc1 [MPP^+, 1-methyl-4-phenylpyridinium]
- Inhibition of mitochondrial complex I (in words) [2]: potent and specific inhibitor of mitochondrial respiratory complex I

SMILES: Cc1nc2n(c(=O)c1CCN1CCC(c3noc4cc(F)ccc34)CC1)CCCC2 [Risperidone]
- El. Transport Site II (respiratory complex II): +
- ATP Synthesis (ATP synthetase): −
- Uncoupling [1]: ++
- Uncoupling action (in words) [1]: more potent than clozapine
- Inhibition of electron transport, overall (in words) (electron transport chain): inhibited electron transport markedly but not specifically at either complex I or II; also recorded: potent inhibitors of electron transport
- El. Transport Site I (respiratory complex I): +++

SMILES: OCCOCCN1CCN(C2=Nc3ccccc3Sc3ccccc32)CC1 [Quetiapine]
- El. Transport Site II (respiratory complex II): −
- ATP Synthesis (ATP synthetase): −
- Uncoupling [1]: +
- Uncoupling action (in words) [1]: more potent than clozapine
- Inhibition of electron transport, overall (in words) (electron transport chain): very mild effects
- El. Transport Site I (respiratory complex I): +
- Inhibition of electron transport at respiratory complex I (in words) (respiratory complex I): had a slight effect and was also specific for complex I

SMILES: CN(C)CCCN1c2ccccc2Sc2ccc(Cl)cc21 [Chlorpromazine]
- El. Transport Site II (respiratory complex II): +
- ATP Synthesis (ATP synthetase): −
- Uncoupling [1]: ++
- Uncoupling action (in words) [1]: more potent than clozapine
- Inhibition of electron transport, overall (in words) (electron transport chain): potent inhibitors of electron transport
- El. Transport Site I (respiratory complex I): +++
- Inhibition of electron transport at respiratory complex I (in words) (respiratory complex I): inhibited electron transport specifically at respiratory complex I
